Legend:
[1] = test system: inadequately controlled, metformin-treated type 2 diabetic patients; assay: 12-week randomized, double-blind study of BI 1356 add-on to metformin vs placebo or open label glimepiride; type: in vivo, human
Procedure: Efficacy and safety of BI 1356 (1, 5, or 10 mg qd), a potent and selective dipeptidyl peptidase-4 (DPP-4) inhibitor, was examined in inadequately controlled, metformin-treated (MET, ≧1 g daily) type 2 diabetic patients (T2DM; HbA1c at baseline 7.5-10.0%). Effects were compared to add-on of placebo (PBO) or of open label glimepiride (GLIM; 1 to 3 mg qd) in a 12-week randomized, double-blind study. Antidiabetic medication other than metformin was washed out for 6 weeks (34.7% of the patients).
The primary endpoint was change from baseline in HbA1c, adjusted for prior antidiabetic medication. 333 patients (mean baseline HbA1c 8.3%; fasting plasma glucose [FPG] 185 mg/dL) were randomized to BI 1356, PBO or open-label GLIM. […] Reductions in FPG from baseline to Week 12 with BI 1356 were statistically significant (1 mg, −19 mg/dL; 5 mg, −35 mg/dL; 10 mg, −30 mg/dL). […] For this dose, >80% DPP-4 inhibition at trough in >80% of the patients at week 12 was achieved.
In total, 106 patients (43.1%) experienced adverse events (AEs) with similar incidences across all treatments. Most frequently reported episodes were nasopharyngitis (7.5%), diarrhoea (3.3%), and nausea (3.0%). […] Ten patients (3.7%) experienced serious AEs but none of these events were considered drug-related.

[2] = test system: patients with type 2 diabetes mellitus and insufficient glycemic control; type: in vivo, human
Procedure: A multi-center, 24-week, randomized, double-blind, placebo-controlled, parallel group study investigates the efficacy and safety of initial combination therapy with the DPP-4 inhibitor linagliptin (LI) and pioglitazone (PIO). […] Mean baseline characteristics (HbA1c 8.6%; fasting plasma glucose [FPG] 190 mg/dL; age 57.5 yrs; BMI 29.0 kg/m2) are similar between the groups. […] After 24 weeks of treatment, the adjusted mean change in HbA1c for the patients in the LI+ PIO group (full analysis set, last observation carried forward) is −1.06% (standard error (SE)±0.06). The difference in the adjusted mean HbA1c for the LI+ PIO group compared with PBO+PIO is −0.51% (p<0.0001; 95% confidence interval (CI), −0.71, −0.30). […] The proportion of patients that experienced at least one adverse event (AE) is similar for both LI+ PIO and PBO+PIO groups (136, 52.5% vs. 53.1%, respectively). Hypoglycemia is rare, occurring in 3 patients (1.2%) in the LI+ PIO group and none in the PBO+PIO group. All hypoglycemic events are of mild intensity.

[3] = test system: Japanese patients with type 2 diabetes mellitus; details: VB 0.2 mg tid
the diabetic = details: metformin on its own; cited from earlier work
[4] = 5 mg LI plus 30 mg PIO qd or 30 mg PIO plus placebo qd, 24 weeks

SMILES: CCC1=C(C)CN(C(=O)NCCc2ccc(S(=O)(=O)NC(=O)N[C@H]3CC[C@H](C)CC3)cc2)C1=O [GLIM, glimepiride, reference compound]
- drug-related hypoglycaemia, number of patients ([1]; GLIM 1 to 3 mg qd add-on to metformin, 12 weeks): 3 patients
- mean PBO corrected reduction in HbA1c ([1]; open label GLIM 1 to 3 mg qd add-on to metformin, Week 12): −0.90%

SMILES: CCc1ccc(CCOc2ccc(CC3SC(=O)NC3=O)cc2)nc1 (stereo not drawn) [PBO+PIO, pioglitazone]
- patients achieving a reduction in HbA1c of ≧0.5% [2, 4]: 50.8%
- patients achieving a target HbA1c of <7% [2, 4]: 30.5%
- hypoglycemia, number of patients ([2]; in vivo): none
- proportion of patients that experienced at least one adverse event (AE) ([2]; in vivo): 53.1%

SMILES: OCC(CO)N[C@H]1C[C@](O)(CO)[C@@H](O)[C@H](O)[C@H]1O [VB, voglibose, reference compound]
- proportion of patients whose HbA1c level lowered by ≧0.5% ([3]; 26 weeks): 37.7%
- proportion of patients achieving HbA1c<7.0% ([3]; after 26 weeks): 22.2%

SMILES: CN(C)C(=N)N=C(N)N [metformin]
- average improvement in the HbA1c value (the diabetic): 1.0-1.5%

Source: patent publication US9457029B2, “Treatment of genotyped diabetic patients with DPP-IV inhibitors such as linagliptin” (Boehringer Ingelheim International GmbH, priority 2009, dated 2016)
